pIC50: −log10 of the molar value. Where two headings read alike, the source gives them in different places.
Assays:
[1] = test system: human sperm in whole semen; assay: Sperm viability assay (Trypan blue); assay type: cell-based
Method: (§1) Sperm is obtained from two donors for sperm motility experiments. A third donor is recruited for sperm viability assays with glycerol monolaurate. Swim out sperm are obtained as described previously. Briefly, one can place 0.5 mL aliquots of semen below 3 mL of Ham's F-10 media (Sigma-Aldrich) with 0.5% human serum albumin (Sigma-Aldrich) for 75 min in 5% CO2 and 37° C. The aspirate, enriched for motile sperm, was centrifuged at 300 RCF for five min and resuspended in fresh Ham's F-10 to a concentration of 20×10^6 sperm/mL. The effect of drug dilutions on sperm motility are performed both in whole semen and in swimout sperm by adding […] of sperm and drugs to a slide and observing sperm motility with phase contrast either at 200× and 37° C. (ECLIPSE Ti, Nikon), or by adding 200 […] and quantifying sperm motility with computer aided motility analysis for up to 7 min after the addition of drug. Multiple media only controls are run to ensure that any observed change in motility was minimally dependent upon time since ejaculation. Sperm viability was measured by adding 20 […] of Trypan blue (Sigma-Aldrich) and counting 100 live or dead sperm based on head staining after a 10 min incubation using brightfield microscopy.

human swim-out sperm = assay: Sperm motility assay; assay type: cell-based; details: for Inhibition of sperm function: motility of purified (swim-out) human sperm
Method: as §1

TZM-bl cells = assay: Cytotoxicity in TZM-bl cells (CellTiter Blue); assay type: cell-based; details: for Cytotoxicity to TZM-bl cells: 48 h exposure to 24 h eluates of PVA fabrics, 20 wt.% theoretical loading
Method: TZM-bl cells and HIV-1 BaL isolate are obtained. TZM-bl cells are a HeLa derived cell line that express CD4, CCR5 and CXCR4. Cells re plated in a black 96-well plate at a density of 5,000 cells/well (Corning, Corning, N.Y.) and maintained in Dulbecco's Modified Eagle Medium (DMEM) (Gibco Life Technologies) with 10% fetal bovine serum (Hyclone), 1% 100× penicillin/streptomycin (Invitrogen) and 1% 200 mM L-glutamine. […] Fibers were sterilized by UV irradiation for one hour per side prior to use. Treatments were added at a volume of 50 μL. Cytotoxicity is analyzed using the CellTiter Blue assay (Promega) to assess TZM-bl cell viability after 48 h of exposure to drug eluates from fiber release in cDMEM (24 h release, triplicate wells for each sample). Percent viability is calculated by normalizing to the average of media control wells (n=9). […] Positive control (12.5% DMSO) results in 4.6% viability. Data represents triplicate wells with error bars indicating standard deviation.

HIV-1 BaL [2] = assay: HIV-1 BaL infection inhibition assay in TZM-bl cells (luciferase); assay type: cell-based
Method: TZM-bl cells and HIV-1 BaL isolate are obtained. TZM-bl cells are a HeLa derived cell line that express CD4, CCR5 and CXCR4. Cells re plated in a black 96-well plate at a density of 5,000 cells/well (Corning, Corning, N.Y.) and maintained in Dulbecco's Modified Eagle Medium (DMEM) (Gibco Life Technologies) with 10% fetal bovine serum (Hyclone), 1% 100× penicillin/streptomycin (Invitrogen) and 1% 200 mM L-glutamine. […] Fibers were sterilized by UV irradiation for one hour per side prior to use. Treatments were added at a volume of 50 μL. […] Percent viability is calculated by normalizing to the average of media control wells (n=9). For composite fabrics, the drug concentration shown applies to both the amount of LNG and of TFV (1:1 ratio). […] Data represents triplicate wells with error bars indicating standard deviation.
Inhibition of infectious activity is quantified by measuring luminescence on a plate reader (Tecan). IC50 values of drug compounds re estimated using sigmoidal regression in Graphpad Prism, version 5.0.
TZM-bl cells and HIV-1 BaL isolate re obtained from the NIH AIDS Research and Reference Reagent Program, Division of AIDS, NIAID, NIH (http://www.aidsreagent.org/). TZM-bL cells, a derived HeLa cell line that expresses CD4, CCR5, and CXCR4, were added to black 96-well plates (Corning, Corning, N.Y.) with Dulbecco's Modified Eagle Medium (DMEM) (Gibco Life Technologies) with 10% fetal bovine serum (Hyclone), 1% 100× penicillin/streptomycin (Invitrogen), and 1% 200 mM L-glutamine (Invitrogen) with […] at a density of 5,000 cells/well. […] Fibers re sterilized by UV irradiation for 2 h (1 h per side). Treatments were added in […]. For the HIV-infectious inhibition assay, […] (240 TCID/well) are added to wells 1 h after drug treatment. […] Infectious activity is quantified by measuring luminescence on a plate reader (Tecan).
TZM-bl cells and HIV-1 BaL isolate re obtained from the NIH AIDS Research and Reference Reagent Program, Division of AIDS, NIAID, NIH (http://www.aidsreagent.org/). TZM-bL cells, a derived HeLa cell line that expresses CD4, CCR5, and CXCR4, are added to black 96-well plates (Corning, Corning, N.Y.) with Dulbecco's Modified Eagle Medium (DMEM) (Gibco Life Technologies) with 10% fetal bovine serum (Hyclone), 1% 100× penicillin/streptomycin (Invitrogen), and 1% 200 mM L-glutamine (Invitrogen) with 50 μL/well at a density of 5,000 cells/well. […] Treatments are diluted serially and randomly assigned to treatments A-E. A second operator, blinded to the identity of the treatments, added each in 50 μL volumes into duplicate wells (n=1 was used for PVP (D) and PEO Tween 20 (E) formulations only due to space limitations on the 96-well plate). 100 μL of HIV-BaL (240 TCID/well) was added to wells 1 h after drug treatment. […] Infectious activity was quantified by measuring luminescence on a plate reader (Tecan).

[3] = In vitro release of TFV and LNG from PVA fabrics in 1:1 isopropanol:water; assay type: physicochemical
Method: Drug loading is analyzed by dissolving approximately 5 mg of fibers in 20 mL of a mixture of 1:1 isopropanol:water in a glass vial. Triplicate samples are allowed to dissolve overnight at 37° C. on a rotational shaker and concentration is quantified using a Shimadzu Prominence LC20AD UV-HPLC system. A Phenomenex Luna C18 column (5 μM, 250×4.6 mm) and LC Solutions software are used to analyze samples.
A method for dual analysis of TFV and LNG is developed using the following gradient method using mobile phase A (0.1% formic acid in water) and mobile phase B (acetonitrile). The run consisted of 0-5 minutes 72% mobile phase A, 5-10 minutes ramp to 15% mobile phase A, 10-20 minutes 15% mobile phase A, 20-25 minutes ramp to 72% mobile phase A, 25-30 minutes 72% mobile phase A. The total method time is 30 minutes, with an oven temperature of 30° C., a flow rate of 1 mL/min, and an injection volume of 20 μL. LNG is detected at 238 nm at a retention time of 18.5 minutes. TFV is detected at 259 nm at a retention time of 2.3 minutes.
In vitro release was analyzed in a 1:1 solution of isopropanol:water due to the limited solubility of LNG in water. Sink conditions were maintained throughout the study for both drugs in the release media. Approximately 5 mg of fibers were prepared in triplicate and an appropriate volume of release media was added to maintain sink conditions of 2.6 mg/mL LNG as has been reported. Samples were incubated at 37° C. on a rotational shaker, and 200 μL samples of release media was taken as indicated. Fresh media was added to replace sample volume at each timepoint.

[4] = Cumulative release of TFV from PVA fiber meshes at pH 4.3 and pH 7.4; assay type: physicochemical; details: pH 4.3 and 7.4, small and large scale
Method: FIG. 26. Burst release of TFV within 5 minutes at pH 4.3 and 7.4 is similar for meshes electrospun on small scale and large scales. Graphs display cumulative release of TFV in pH 4.3 citrate buffer (a,c) or pH 7.4 PBS (b,d) for fibers spun on small scale versus large scale instruments for pH adjusted and unadjusted solutions.

HIV-1 BaL [5] = details: free (unformulated) drug; as reported previously; read-out: IC50 of free TFV; cited from earlier work
[6] = Drug stability in fibers stored at room temperature; assay type: physicochemical; details: PLLA/PEO meshes, at least five months
Method: Plates were then digitized using a scanner. Drug loading and stability is measured using fibers stored at room temperature (19-22° C.) for at least five months. […] UV-HPLC is used to quantify amount of drug in samples as previously described. Encapsulation efficiency is calculated as the amount of drug in drug-loaded fibers relative to the amount of drug detected in dissolved blank fibers spiked at 1% (wt/wt) drug loading.

[7] = DPV release from PVP and EC fibers; assay type: physicochemical
HIV = details: cited from earlier work
[8] = Human immunodeficiency virus 1, BAL, TZM-bl, read-out: Final ARV drug concentration at IC50, drugs released from EC fibers (sustained)
[9] = Human immunodeficiency virus 1, BAL, TZM-bl, read-out: Final ARV drug concentration at IC50, drugs released from PVA fibers (pericoital)
[10] = single-drug PVA fibers, calculated for assumed 500 mg of fabric

With `CCCCCCCCCCCC(=O)OCC(O)CO` (centres unmarked) [GML, glycerol monolaurate] the “Reduction of sperm viability” value ([1]; 5% (wt/vol)) was 33.1%, the “Reduction of sperm viability” value ([1]; concentration not given) was 19.6% and the “Concentrations that inhibited sperm motility (complete spermiostasis)” value (human swim-out sperm) was 0.05-0.5 % (wt/vol). For the same compound, the “EC50, reduction of sperm motility” value (human swim-out sperm; at 2 min) was 0.005 % wt/vol and the “Lowest concentration with reduction in motility” value (human swim-out sperm; no complete spermiostasis) was ≥ 0.00005 % (wt/vol).

In the case of `C#C[C@]1(O)CC[C@H]2[C@@H]3CCC4=CC(=O)CC[C@@H]4[C@H]3CC[C@@]21CC` [LNG, levonorgestrel], the “Cytotoxicity to TZM-bl cells” value (TZM-bl cells) was “induced by high concentrations”.

`Cc1nnc(C(=O)NC(C)(C)c2nc(C(=O)NCc3ccc(F)cc3)c(O)c(=O)n2C)o1` [RAL, raltegravir] gave a pIC50 (HIV-1 BaL [2]; [8]) of 8.42 and a pIC50 (HIV-1 BaL [2]; [9]) of 8.92.

With `C[C@H](Cn1cnc2c(N)ncnc21)OCP(=O)(O)O` [TFV, tenofovir] the “Cumulative mass of drug released after 15 minutes” value [3, 10] was ~40 mg, the “Cumulative mass of drug released after 60 minutes” value [3, 10] was ~60 mg and the “Time to 100% TFV release” value ([3]; single-drug or 1:1 TFV:LNG PVA fabrics, 20 wt.% theoretical loading) was ≤ 30 min. For the same compound, the “Cytotoxicity to TZM-bl cells” value (TZM-bl cells) was “not”, the “Time of burst release of TFV” value [4] was ≤ 5 min and the pIC50 (HIV-1 BaL [5]) was 5.74.

In the case of `Cc1cn([C@H]2C[C@H](N=[N+]=[N-])[C@@H](CO)O2)c(=O)[nH]c1=O` [AZT, 3′-azido-3′-deoxythymidine], the “Initially-loaded drug detected in stored fiber meshes” value [6] was 0.95%, the “Toxicity to TZM-bL cells” value (TZM-bl cells; compared with media controls) was “nontoxic” and the pIC50 (HIV-1 BaL [2]; Human immunodeficiency virus 1, BAL, TZM-bl, read-out: IC50, drug eluted from fibers) was 7.08. It also gave a pIC50 (HIV-1 BaL [2]; Human immunodeficiency virus 1, BAL, TZM-bl, read-out: IC50, unformulated drug) of 6.92.

Compound maraviroc [MVC] has a pIC50 (HIV-1 BaL [2]; drugs released from EC fibers (sustained), read-out: Final ARV drug concentration at IC50) of 8.38, a pIC50 (HIV-1 BaL [2]; drugs released from PVA fibers (pericoital), read-out: Final ARV drug concentration at IC50) of 8.80 and a pIC50 (HIV-1 BaL [2]; eluates released from PLLA/PEO fibers, read-out: IC50, drug eluted from fibers) of 8.64. For the same compound, the “Globally shared best fit IC50” value (HIV-1 BaL [2]; pure maraviroc and maraviroc released from PVP/PEO electrospun formulations) was 6.96 ng/mL, the pIC50 (HIV-1 BaL [2]; pure maraviroc and maraviroc released from PVP/PEO electrospun formulations, read-out: Globally shared best fit IC50) was 7.87 and the pIC50 (HIV-1 BaL [2]; unformulated, read-out: IC50, unformulated drug) was 9.05.

For `Cc1cc(C)c(Nc2ccnc(Nc3ccc(C#N)cc3)n2)c(C)c1` [DPV, dapivirine], the DPV release characteristics ([7]; from EC fibers) is given as “sustained release”, the DPV release characteristics ([7]; from PVP fibers) is given as “burst-release” and the “Duration of prevention of localized and disseminated infection posttreatment” value (HIV) is given as ≤ 6 days.

For methyl-β-cyclodextrin [MBCD], the “Inhibition of sperm function” value (human swim-out sperm) was “ineffective”.

For `C[S+](C)[O-]` [DMSO], the “Viability, positive control” value (TZM-bl cells) was 4.6%.

In the case of `Cc1cc(C#N)cc(C)c1Oc1nc(Nc2ccc(C#N)cc2)nc(N)c1Br` [ETR, etravirine], the pIC50 (HIV-1 BaL [2]; [8]) was 8.57 and the pIC50 (HIV-1 BaL [2]; [9]) was 9.15.

In the case of ferrous D-gluconate [FeGluc], the “Inhibition of sperm function” value (human swim-out sperm) was “ineffective”.
